In US20240190849A1, “AMINOPYRIMIDINE COMPOUNDS AND METHODS OF THEIR USE” (TYRA BIOSCIENCES, INC., priority 2021, published 2024):

Assays:
FGFR2 = target: T1, FGFR2 (Homo sapiens, UniProt P21802); experiment: Kinase binding assay (kinase-tagged T7 phage, affinity beads, qPCR readout), FGFR2; conditions: FGFR binding data
T1 construct: made in house; host or cells: E. coli derived from BL21, infected with T7 phage
How it was run: (§1)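 First, streptavidin beads were loaded with biotinylated ligand and blocked. Kinase, beads and compound were then shaken together for 1 hour at room temperature in SeaBlock/PBS/Tween/DTT buffer. Finally, eluted kinase was measured by qPCR and Kd fitted with Hill slope −1.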

FGFR3 = target: T2, FGFR3 (Homo sapiens, UniProt P22607); experiment: Kinase binding assay (kinase-tagged T7 phage, affinity beads, qPCR readout), FGFR3; conditions: FGFR binding data
T2 construct: made in house; host or cells: E. coli derived from BL21, infected with T7 phage
T2 sequence (P22607 23-806): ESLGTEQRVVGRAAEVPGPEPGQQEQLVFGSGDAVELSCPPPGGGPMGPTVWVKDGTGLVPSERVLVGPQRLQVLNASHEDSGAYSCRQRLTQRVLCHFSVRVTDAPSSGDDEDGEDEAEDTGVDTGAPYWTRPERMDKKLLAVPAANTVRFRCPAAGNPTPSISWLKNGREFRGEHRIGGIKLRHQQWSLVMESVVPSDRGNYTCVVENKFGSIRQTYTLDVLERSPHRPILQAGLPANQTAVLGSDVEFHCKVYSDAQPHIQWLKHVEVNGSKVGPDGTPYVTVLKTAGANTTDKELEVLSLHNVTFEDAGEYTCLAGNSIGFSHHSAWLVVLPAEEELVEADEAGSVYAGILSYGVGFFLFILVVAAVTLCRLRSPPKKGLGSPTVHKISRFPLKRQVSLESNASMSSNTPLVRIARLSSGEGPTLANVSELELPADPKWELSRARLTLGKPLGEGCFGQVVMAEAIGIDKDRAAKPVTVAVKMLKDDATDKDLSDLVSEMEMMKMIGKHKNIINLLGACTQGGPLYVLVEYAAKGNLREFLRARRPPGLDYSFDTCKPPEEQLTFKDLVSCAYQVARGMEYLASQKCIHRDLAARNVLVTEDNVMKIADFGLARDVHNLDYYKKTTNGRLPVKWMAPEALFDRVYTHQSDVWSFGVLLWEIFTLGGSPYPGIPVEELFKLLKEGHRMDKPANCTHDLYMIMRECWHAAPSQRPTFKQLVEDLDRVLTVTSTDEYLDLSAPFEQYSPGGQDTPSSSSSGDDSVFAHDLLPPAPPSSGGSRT
How it was run: as §1

[1] = system: UM-UC-14 (Bladder Cancer), FGFR3(S249C); experiment: Cancer cell viability assay (Cell Titer-Glo), UM-UC-14; assay type: cell-based; conditions: UMUC14, UM-UC-14 cells, 72 hours
From the text: (§2) RT112/84, UM-UC-14, SNU-16 and KG-1 Cancer Cell Line Cell Viability Assays
(§3) To detect the change of intracellular ATP by Cell Titer-Glo@ and to evaluate the inhibitory effect of the compounds on cancer cell lines by determining the in vitro IC50 value of the compounds.
(§4) Cell Titer-Glo@ 2.0 Luminescent cell viability assay reagent was purchased from Promega (Madison, WI). RT112/84, SNU-16, and KG-1 cell lines were purchased from American Type Culture Collection (Manassas, VA). UM-UC-14 cell line was purchased from Sigma (St. Louis, MO). RT112/84, UM-UC-14, SNU-16, and KG-1 cells were cultured in RPMI1640 media supplemented with 10% fetal bovine serum. Cultures were maintained at 37° C. in a humidified atmosphere of 5% CO2 and 95% air.
(§5) Cell Viability Assay Procedure: Cells were plated in 96-well clear bottom/white plates (Corning #3903) at 10,000 cells/well in 100 μl of media, incubated overnight. The next day, test compound DMSO stock solutions were made at 10 mM and 2 μM final concentration. Compounds were then added to cells in a 9-dose, […] dilution series starting at 30 μM with an HP 300e Digital Dispenser (each dose was applied in triplicate). DMSO was backfilled to each well up to 301 nL total volume of test compound+DMSO, and a total of 301 nL DMSO was added to a control/no test compound well in triplicate. The cells in cell culture plates were incubated with the compounds at 37° C. and 5% CO2 for 72 hours. Then 50 μl of Cell Titer Glo 2.0 reagent was added to each well of the cell culture plates. The contents were covered from light and mixed on an orbital shaker at room temperature for 10 min. Luminescence was recorded by a Synergy H1 Microplate Reader (Biotek, Winooski, VT). Cells were assessed as a percentage of DMSO only treated control cells. Curves were plotted and IC50 values were calculated using the GraphPad Prism 8 program based on a sigmoidal dose-response equation (4 parameter).

FGFR3 (V555M) = target: T3, FGFR3 (V555M) (Homo sapiens, UniProt P22607, V555M); experiment: Kinase binding assay (kinase-tagged T7 phage, affinity beads, qPCR readout), FGFR3 (V555M); conditions: FGFR binding data
T3 construct: made in house; host or cells: E. coli derived from BL21, infected with T7 phage
T3 sequence (P22607 23-806 V555M): as the sequence (P22607 23-806) above, with V533M counted along it
How it was run: as §1

FGFR1 = target: T4, FGFR1 (Homo sapiens, UniProt P11362); experiment: Kinase binding assay (kinase-tagged T7 phage, affinity beads, qPCR readout), FGFR1; conditions: FGFR binding data
T4 construct: made in house; host or cells: E. coli derived from BL21, infected with T7 phage
T4 sequence (P11362 22-822): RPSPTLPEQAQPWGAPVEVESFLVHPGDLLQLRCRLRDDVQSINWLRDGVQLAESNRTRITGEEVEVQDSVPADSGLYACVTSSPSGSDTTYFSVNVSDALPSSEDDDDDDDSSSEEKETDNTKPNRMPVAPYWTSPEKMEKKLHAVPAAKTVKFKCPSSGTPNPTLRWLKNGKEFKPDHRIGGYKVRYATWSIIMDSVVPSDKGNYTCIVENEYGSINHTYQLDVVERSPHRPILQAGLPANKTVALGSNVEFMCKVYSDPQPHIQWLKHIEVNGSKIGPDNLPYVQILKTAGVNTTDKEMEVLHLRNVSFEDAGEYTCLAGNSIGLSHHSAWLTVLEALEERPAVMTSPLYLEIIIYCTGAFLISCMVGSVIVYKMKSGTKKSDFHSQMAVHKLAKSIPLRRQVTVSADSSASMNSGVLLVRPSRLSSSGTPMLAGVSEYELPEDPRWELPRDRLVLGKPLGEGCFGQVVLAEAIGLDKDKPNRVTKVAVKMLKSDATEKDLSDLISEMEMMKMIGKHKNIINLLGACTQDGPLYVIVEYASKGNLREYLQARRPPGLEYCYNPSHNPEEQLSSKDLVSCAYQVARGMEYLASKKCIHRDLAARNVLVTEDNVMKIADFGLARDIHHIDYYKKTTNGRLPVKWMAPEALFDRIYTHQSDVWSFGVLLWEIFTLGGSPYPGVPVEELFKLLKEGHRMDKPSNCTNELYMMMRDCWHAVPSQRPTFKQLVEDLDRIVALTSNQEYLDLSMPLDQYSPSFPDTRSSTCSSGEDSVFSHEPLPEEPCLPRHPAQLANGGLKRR
How it was run: as §1

[2] = system: RT112/84 (Bladder Cancer), FGFR3-TACC3 fusion; experiment: Cancer cell viability assay (Cell Titer-Glo), RT112/84; assay type: cell-based; conditions: Homo sapiens, RT112/84 cells, 72 hours
From the text: as §2, §3, §4, §5

[3] = system: SNU-16 (Gastric Carcinoma), FGFR2 amplification; experiment: Cancer cell viability assay (Cell Titer-Glo), SNU-16; assay type: cell-based; conditions: Homo sapiens, SNU-16 cells, 72 hours, read-out: SNU16 FGFR2 (IC50 nM)
From the text: as §2, §3, §4, §5

T1 sequence (P21802 22-821): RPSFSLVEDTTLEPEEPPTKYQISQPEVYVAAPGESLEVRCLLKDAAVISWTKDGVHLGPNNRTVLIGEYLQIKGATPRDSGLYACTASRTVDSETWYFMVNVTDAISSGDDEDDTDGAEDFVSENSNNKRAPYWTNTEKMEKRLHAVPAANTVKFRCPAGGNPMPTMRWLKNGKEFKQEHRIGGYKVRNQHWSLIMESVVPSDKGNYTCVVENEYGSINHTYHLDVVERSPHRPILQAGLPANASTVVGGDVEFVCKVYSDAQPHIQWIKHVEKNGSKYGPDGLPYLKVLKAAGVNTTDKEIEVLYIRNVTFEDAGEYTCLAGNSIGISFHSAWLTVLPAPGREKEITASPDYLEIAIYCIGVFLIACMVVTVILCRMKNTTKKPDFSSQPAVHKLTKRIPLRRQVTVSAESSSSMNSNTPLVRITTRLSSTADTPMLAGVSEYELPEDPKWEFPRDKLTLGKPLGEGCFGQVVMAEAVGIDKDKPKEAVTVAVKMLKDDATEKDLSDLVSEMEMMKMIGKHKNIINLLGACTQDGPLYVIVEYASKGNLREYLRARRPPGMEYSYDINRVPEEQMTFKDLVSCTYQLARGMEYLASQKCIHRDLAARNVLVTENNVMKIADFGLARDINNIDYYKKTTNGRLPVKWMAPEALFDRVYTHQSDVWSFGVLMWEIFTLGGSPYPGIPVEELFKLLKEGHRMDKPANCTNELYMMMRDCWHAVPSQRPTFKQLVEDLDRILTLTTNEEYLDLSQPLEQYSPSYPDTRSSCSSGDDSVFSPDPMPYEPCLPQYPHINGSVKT

Row | Compound | Kd (FGFR2) [nM] | Kd (FGFR3) [nM] | IC50 [1] [nM] | Kd (FGFR3 (V555M)) [nM] | Kd (FGFR1) [nM] | IC50 [2] [nM] | IC50 [3] [nM]
1 | C=CC(=O)Nc1ccc2c(c1)c(C)nn2-c1nc(Nc2ccnn2C)ncc1C [Example 77, N-[3-methyl-1-[5-methyl-2-[(2-methylpyrazol-3-yl)amino]pyrimidin-4-yl]indazol-5-yl]prop-2-enamide] | > 1000 | 250 to 1000 | > 1000 | 250 to 1000 | > 1000 | – | –
2 | C=CC(=O)Nc1ccc2c(-c3nc(Nc4cnc5ccnn5c4)ncc3Cl)cn(C)c2c1 [Example 43, N-[3-[5-chloro-2-(pyrazolo[1,5-a]pyrimidin-6-ylamino)pyrimidin-4-yl]-1-methyl-indol-6-yl]prop-2-enamide] | – | – | 100 to 250 | – | – | – | –
3 | C=CC(=O)Nc1ccc2c(-c3nc(Nc4ccc(N5CCN(C)CC5)cc4)ncc3Cl)cn(C)c2c1 [Example 50, N-[3-[5-chloro-2-[4-(4-methylpiperazin-1-yl)anilino]-pyrimidin-4-yl]-1-methyl-indol-6-yl]prop-2-enamide] | – | – | – | – | – | 0.1 to 100 | –
4 | C=CC(=O)Nc1ccc2c(c1)c(C)nn2-c1nc(Nc2ccnn2C)ncc1F [Example 76, N-[1-[5-fluoro-2-[(2-methylpyrazol-3-yl)amino]pyrimidin-4-yl]-3-methyl-indazol-5-yl]prop-2-enamide] | 250 to 1000 | 250 to 1000 | 250 to 1000 | > 1000 | > 1000 | – | –
5 | C=CC(=O)Nc1ccc2c(c1)c(C)cn2-c1nc(Nc2ccc(N3CCOCC3)cc2)ncc1C#N [Example 38, N-[1-[5-cyano-2-(4-morpholinoanilino)pyrimidin-4-yl]-3-methyl-indol-5-yl]prop-2-enamide] | 0.1 to 100 | 0.1 to 100 | – | 0.1 to 100 | 0.1 to 100 | 0.1 to 100 | –
6 | C=CC(=O)Nc1ccc2c(c1)c(C)cn2-c1nc(Nc2cn(C)nc2C#N)ncc1Cl [Example 70, N-[1-[5-chloro-2-[(3-cyano-1-methyl-pyrazol-4-yl)amino]pyrimidin-4-yl]-3-methyl-indol-5-yl]prop-2-enamide] | 0.1 to 100 | 0.1 to 100 | – | 0.1 to 100 | 100 to 250 | 250 to 1000 | –
7 | C=CC(=O)Nc1ccc2c(c1)c(C)cn2-c1nc(Nc2cnn(C[C@H](C)O)c2)ncc1F [Example 186, N-[1-[5-Fluoro-2-[[1-[(2S)-2-hydroxypropyl]pyrazol-4-yl]amino]pyrimidin-4-yl]-3-methyl-indol-5-yl]prop-2-enamide] | 0.1 to 100 | 0.1 to 100 | – | 0.1 to 100 | 0.1 to 100 | 0.1 to 100 | 0.1 to 100
8 | C=CC(=O)Nc1ccc2c(-c3ccnc(Nc4cnn(C(F)(F)F)c4)n3)cn(C)c2c1 [Example 184, N-[1-methyl-3-[2-[[1-(trifluoromethyl)pyrazol-4-yl]amino]pyrimidin-4-yl]indol-6-yl]prop-2-enamide] | 0.1 to 100 | 0.1 to 100 | 0.1 to 100 | 0.1 to 100 | 250 to 1000 | – | 0.1 to 100

Further lines, results first:

Row | Kd (FGFR2) [nM] | Kd (FGFR3) [nM] | IC50 [1] [nM] | Kd (FGFR3 (V555M)) [nM] | Kd (FGFR1) [nM] | IC50 [2] [nM] | IC50 [3] [nM] | Compound
9 | 0.1 to 100 | 0.1 to 100 | – | 0.1 to 100 | 0.1 to 100 | 100 to 250 | – | C=CC(=O)Nc1ccc2c(c1)c(C)cn2-c1nc(Nc2cnn(C)c2)ncc1C#N [Example 32, N-[1-[5-cyano-2-[(1-methylpyrazol-4-yl)amino]pyrimidin-4-yl]-3-methyl-indol-5-yl]prop-2-enamide]
10 | 0.1 to 100 | 0.1 to 100 | 0.1 to 100 | 0.1 to 100 | 0.1 to 100 | – | 0.1 to 100 | C=CC(=O)Nc1ccc2c(c1)c(C)cn2-c1nc(Nc2cnn(CCO)c2)ncc1Cl [Example 89, N-[1-[5-chloro-2-[[1-(2-hydroxyethyl)pyrazol-4-yl]amino]pyrimidin-4-yl]-3-methyl-indol-5-yl]prop-2-enamide]
11 | 0.1 to 100 | 0.1 to 100 | 0.1 to 100 | 0.1 to 100 | 0.1 to 100 | 0.1 to 100 | – | C=CC(=O)Nc1ccc2c(c1)c(C)cn2-c1nc(Nc2ccc(CN3CCOCC3)c(F)c2)ncc1Cl [Example 68, N-[1-[5-chloro-2-[3-fluoro-4-(morpholinomethyl)anilino]pyrimidin-4-yl]-3-methyl-indol-5-yl]prop-2-enamide]
12 | 0.1 to 100 | 0.1 to 100 | 0.1 to 100 | 0.1 to 100 | 0.1 to 100 | – | – | C=CC(=O)Nc1cnc2c(c1)c(C)cn2-c1nc(Nc2ccnn2C)ncc1F [Example 80, N-[1-[5-fluoro-2-[(2-methylpyrazol-3-yl)amino]pyrimidin-4-yl]-3-methyl-pyrrolo[2,3-b]pyridin-5-yl]prop-2-enamide]
13 | 0.1 to 100 | 0.1 to 100 | – | 0.1 to 100 | 100 to 250 | 250 to 1000 | – | C=CC(=O)Nc1ccc2c(c1)c(C)cn2-c1nc(Nc2c(C)nn(C)c2C)ncc1Cl [Example 41, N-[1-[5-chloro-2-[(1,3,5-trimethylpyrazol-4-yl)amino]pyrimidin-4-yl]-3-methyl-indol-5-yl]prop-2-enamide]
14 | 0.1 to 100 | 0.1 to 100 | – | 0.1 to 100 | 0.1 to 100 | 0.1 to 100 | 0.1 to 100 | C=CC(=O)Nc1ccc2c(c1)c(C)cn2-c1nc(Nc2cn(C)nc2C)ncc1C [Example 187, N-[1-[2-[(1,3-dimethylpyrazol-4-yl)amino]-5-methyl-pyrimidin-4-yl]-3-methyl-indol-5-yl]prop-2-enamide]
15 | 0.1 to 100 | 0.1 to 100 | 0.1 to 100 | 0.1 to 100 | 0.1 to 100 | – | 0.1 to 100 | C=CC(=O)Nc1ccc2c(c1)c(C)cn2-c1nc(Nc2cnn(CCO)c2)ncc1F [Example 90, N-[1-[5-fluoro-2-[[1-(2-hydroxyethyl)pyrazol-4-yl]amino]pyrimidin-4-yl]-3-methyl-indol-5-yl]prop-2-enamide]
16 | 0.1 to 100 | 0.1 to 100 | – | 0.1 to 100 | 0.1 to 100 | 0.1 to 100 | 0.1 to 100 | C=CC(=O)Nc1ccc2c(c1)c(C)cn2-c1nc(Nc2cccc(CN3CCOCC3)c2)ncc1Cl [Example 78, N-[1-[5-chloro-2-[3-(morpholinomethyl)anilino]pyrimidin-4-yl]-3-methyl-indol-5-yl]prop-2-enamide]
17 | 0.1 to 100 | 0.1 to 100 | – | 0.1 to 100 | 0.1 to 100 | 0.1 to 100 | 0.1 to 100 | C=CC(=O)Nc1ccc2c(c1)c(C)cn2-c1nc(Nc2cnn(C[C@@H](C)O)c2)ncc1F [Example 185, N-[1-[5-Fluoro-2-[[1-[(2R)-2-hydroxypropyl]pyrazol-4-yl]amino]pyrimidin-4-yl]-3-methyl-indol-5-yl]prop-2-enamide]
18 | 0.1 to 100 | 0.1 to 100 | – | 0.1 to 100 | 0.1 to 100 | 100 to 250 | – | C=CC(=O)Nc1ccc2c(ccn2-c2nc(Nc3ccc(N4CCN(C)CC4)cc3)ncc2Cl)c1 [Example 1, N-[1-[5-chloro-2-[4-(4-methylpiperazin-1-yl)anilino]pyrimidin-4-yl]indol-5-yl]prop-2-enamide]
19 | 0.1 to 100 | 0.1 to 100 | 0.1 to 100 | 0.1 to 100 | 0.1 to 100 | – | – | C=CC(=O)Nc1ccc2c(c1)c(C)cn2-c1nc(Nc2cnn3c2CCC3)ncc1F [Example 207, N-[1-[2-(5,6-dihydro-4H-pyrrolo[1,2-b]pyrazol-3-ylamino)-5-fluoro-pyrimidin-4-yl]-3-methyl-indol-5-yl]prop-2-enamide]
